Laboratory results: patent publication US9617256B2 (priority 2007, dated 2017)
Converted amounts (≈) assume the structure as drawn. Where two headings read alike, the source gives them in different places. One block for each compound: values may come before it.

What was measured:
[1] = system: ATCC43816; test: MIC broth microdilution, infecting strain ATCC43816; type: cell-based; details: ratio >1 means the —C(CH3)2NH2 compound had a lower MIC than the paired —C(CH3)2OH compound
Experimental: Minimum Inhibitory Concentrations (MICs) were determined by the broth microdilution method in accordance with the Clinical and Laboratory Standards Institute (CLSI) guidelines. In brief, organism suspensions were adjusted to a 0.5 McFarland standard to yield a final inoculum between 3×10^5 and 7×10^5 colony-forming units (CFU)/mL. Drug dilutions and inocula were made in sterile, cation adjusted Mueller-Hinton Broth (Beckton Dickinson). An inoculum volume of 100 μL was added to wells containing 100 μL of broth with 2-fold serial dilutions of drug. All inoculated microdilution trays were incubated in ambient air at 35° C. for 18-24 hours. Following incubation, the lowest concentration of the drug that prevented visible growth (OD600 nm<0.05) was recorded as the MIC. Performance of the assay was monitored by the use of laboratory quality-control strains and levofloxacin, a compound with a defined MIC spectrum, in accordance with CLSI guidelines. Typically, compounds of the present invention have MIC values of […].
(§1) As shown in the following Table 3, three pairs of compounds were tested in the neutropenic thigh efficacy model. For each pair of compounds, the compounds were identical in structure except for the A moiety. More specifically, A is —C(CH3)2NH2 in one compound and A is —C(CH3)2OH in the other compound. […] In addition, the ratios of the MICs of each pair of compounds on the infecting strain (ATCC43816) was calculated.

[2] = system: AECO001 (ATCC25922); test: MIC broth microdilution, AECO001; type: cell-based, E. coli; details: for MIC: Escherichia coli; for Ratio of MICs on AECO001 [Cpd (A = —CHCH3NH2)/Cpd (A = —C(CH3)2NH2)]: MIC of paired compound with A = —CHCH3NH2 divided by MIC of compound with A = —C(CH3)2NH2, n=2 data, pairs identical except for the A moiety
Outline: (§2)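 Inocula prepared from 0.5 McFarland suspensions (final 3×10^5–7×10^5 CFU/mL) were added to 2-fold drug dilution series in cation-adjusted Mueller-Hinton broth. Plates stood 18-24 hours at 35° C. under ambient air.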

[3] = system: AECO063 (ATCC25922 bearing an acrAB mutation); test: microbe, parasite or virus in culture; type: cell-based, E. coli; details: Escherichia coli, ATCC25922, read-out: MIC AECO063
Outline: as §2

[4] = system: ATCC43816; test: Neutropenic thigh efficacy model; type: in vivo, mice; details: for Ratio of thigh static doses: neutropenic thigh model, compound with A = —C(CH3)2NH2 versus paired compound with A = —C(CH3)2OH, ratio >1 means the —C(CH3)2NH2 compound had a lower static dose; for Ratio of thigh static dose normalized to MICs: ratio of neutropenic thigh static doses normalized to the MIC ratio on ATCC43816, —C(CH3)2NH2 compound versus paired —C(CH3)2OH compound
Experimental: Mice were rendered neutropenic prior to infection with 2 doses of cyclophosphamide, and then infected intramuscularly in the thigh with 10^5-10^6 CFU of bacteria. See Gudmundsson S., Erlensdottir H., “Murine Thigh Infection Model” Handbook of Animal Models of Infection, M. A. Sande and O. Zak, Eds.; London: Academic Press, 1999, pp 137-144. Antibiotics or vehicle alone as a negative control were administered twice at 2 hrs and 14 hrs post-infection. At 24 hrs post-infection, thighs were harvested, homogenized, and plated to measure the number of CFUs surviving per thigh. Thighs from a subset of animals were also harvested 2 hrs post-infection to record the CFUs present just prior to the first antibiotic treatment (pre-treatment). The static dose, defined as the dose required to result in a CFU load at 24 hours that is identical to that measured at 0 hours post infection, was calculated by standard methods in Prizm from a dose response curve.
as §1

[5] = system: ASAU001 (laboratory strain of S. aureus, ATCC29213); test: MIC broth microdilution, ASAU001; type: cell-based; details: Staphylococcus aureus, ATCC29213, read-out: MIC ASAU001
Outline: as §2

[6] = system: APAE006 in the presence of 8 micrograms per milliliter of polymyxin B nonapeptide; type: cell-based, P. aeruginosa
Outline: as §2

[7] = system: APAE001 (ATCC27853); test: MIC broth microdilution, APAE001; type: cell-based, P. aeruginosa; details: Pseudomonas aeruginosa
Outline: as §2

[8] = system: APAE006 (strain of P. aeruginosa in which all efflux pumps are inactivated); test: microbe, parasite or virus in culture; type: cell-based; details: Pseudomonas aeruginosa
Outline: as §2

[9] = system: AABA1060 (clinical isolate of Acinetobacter baumannii); test: MIC broth microdilution, AABA1060; type: cell-based; details: Acinetobacter baumannii, read-out: MIC AABA1060
Outline: as §2

[10] = system: AECO001 HSA AGP; test: MIC broth microdilution, AECO001 HSA AGP; type: cell-based, E. coli; details: Escherichia coli
Outline: as §2

[11] = ATCC25922, read-out: MIC AECO001
[12] = ATCC25922, read-out: MIC AECO001 HSA AGP
[13] = APAE006 with 8 micrograms per milliliter polymyxin B nonapeptide
[14] = ATCC27853, read-out: MIC APAE001, APAE001 (ATCC27853)
[15] = read-out: MIC APAE006, APAE006, all efflux pumps inactivated
[16] = in the presence of 8 micrograms per milliliter of polymyxin B nonapeptide
[17] = ATCC27853, read-out: MIC APAE001, APAE001 is ATCC27853
[18] = read-out: MIC APAE006, P. aeruginosa, all efflux pumps inactivated

melting point: 152 to 153 °C
Compound: C[C@@H](O)[C@H](NC(=O)c1ccc(F)c(Br)c1)C(=O)NO

melting point: 64 to 65 °C
Compound: O=C(NO)[C@H]1[C@H](O)CCN1C(=O)c1ccc(OC(F)(F)F)cc1

Compound: CC(C)(N)[C@H](NC(=O)c1ccc(C#CC#Cc2cccs2)cc1)C(=O)NO [Example 88-13]
Ratio of MICs on ATCC43816 [Cpd (A = —CH(CH3)2OH/Cpd (A = —C(CH3)2NH2)]) [1]: 1.6
MIC [2, 11]: < 2 µg/mL
MIC [2, 12]: < 2 µg/mL
Ratio of MICs on AECO001 [Cpd (A = —CHCH3NH2)/Cpd (A = —C(CH3)2NH2)] [2]: 4.1
MIC [3]: < 2 µg/mL
Ratio of thigh static doses [4]: >7x
Ratio of thigh static dose normalized to MICs [4]: >4.4x
MIC [5]: 2 to 16 µg/mL (≈ 5.24 to 41.9 µM)
MIC APAE006 + PMBN [6, 13]: A (MIC's of 2.0 μg/mL or less = A)
MIC [7, 14]: < 2 µg/mL
MIC [8, 15]: < 2 µg/mL
MIC [9]: < 2 µg/mL

Compound: CC(C)(N)[C@H](NC(=O)c1ccc(C#CC#CC2CC2)cc1)C(=O)NO [Example 91-12]
Ratio of MICs on ATCC43816 [Cpd (A = —CH(CH3)2OH/Cpd (A = —C(CH3)2NH2)]) [1]: 1.0
MIC [2, 11]: < 2 µg/mL
MIC [2, 12]: < 2 µg/mL
Ratio of MICs on AECO001 [Cpd (A = —CHCH3NH2)/Cpd (A = —C(CH3)2NH2)] [2]: 5.6
MIC [3]: < 2 µg/mL
Ratio of thigh static doses [4]: >3x
Ratio of thigh static dose normalized to MICs [4]: >3x
MIC [5]: 2 to 16 µg/mL (≈ 5.89 to 47.1 µM)
MIC APAE006 + PMBN [6, 13]: A (MIC's of 2.0 μg/mL or less = A)
MIC [7, 14]: < 2 µg/mL
MIC [8, 15]: < 2 µg/mL
MIC [9]: < 2 µg/mL

Compound: CC(C)(N)[C@H](NC(=O)c1ccc(C#Cc2ccc(CN3CCCOCC3)cc2)cc1)C(=O)NO [Example 122-5]
Ratio of MICs on ATCC43816 [Cpd (A = —CH(CH3)2OH/Cpd (A = —C(CH3)2NH2)]) [1]: 0.5
MIC [2, 11]: < 2 µg/mL
MIC [2, 12]: < 2 µg/mL
Ratio of MICs on AECO001 [Cpd (A = —CHCH3NH2)/Cpd (A = —C(CH3)2NH2)] [2]: 2.4
MIC [3]: < 2 µg/mL
Ratio of thigh static doses [4]: >2x
Ratio of thigh static dose normalized to MICs [4]: >4x
MIC [5]: 16 to 64 µg/mL (≈ 34.4 to 138 µM)
MIC APAE006 + PMBN [6, 13]: A (MIC's of 2.0 μg/mL or less = A)
MIC [7, 14]: < 2 µg/mL
MIC [8, 15]: < 2 µg/mL
MIC [9]: < 2 µg/mL

Compound: C[C@@H](N)[C@H](NC(=O)c1ccc(CCc2ccc(CN3CCOCC3)cc2)cc1)C(=O)NO [Example 136-1, N-((2S,3R)-3-amino-1-(hydroxyamino)-1-oxobutan-2-yl)-4-(4-(morpholinomethyl)phenethyl)benzamide]
MIC [2, 11]: 2 to 16 µg/mL (≈ 4.54 to 36.3 µM)
MIC [10]: 16 to 64 µg/mL (≈ 36.3 to 145 µM)
MIC [3]: < 2 µg/mL
MIC [5]: 16 to 64 µg/mL (≈ 36.3 to 145 µM)
MIC APAE006 + PMBN [6, 16]: A (MIC's of 2.0 μg/mL or less = A)
MIC [7, 17]: 2 to 16 µg/mL (≈ 4.54 to 36.3 µM)
MIC [8, 18]: < 2 µg/mL
MIC [9]: 16 to 64 µg/mL (≈ 36.3 to 145 µM)

Compound: C[C@@H](NC(=O)CNC1CC1)[C@H](NC(=O)c1ccc(C#Cc2ccc(CN3CCOCC3)cc2)cc1)C(=O)NO [Example 137-2]
MIC [2, 11]: < 2 µg/mL
MIC [10]: 2 to 16 µg/mL (≈ 3.75 to 30 µM)
MIC [3]: < 2 µg/mL
MIC [5]: > 64 µg/mL
MIC APAE006 + PMBN [6, 16]: A (MIC's of 2.0 μg/mL or less = A)
MIC [7, 17]: 2 to 16 µg/mL (≈ 3.75 to 30 µM)
MIC [8, 18]: < 2 µg/mL
MIC [9]: 16 to 64 µg/mL (≈ 30 to 120 µM)
